Assay results: patent publication EP1444982A1, “The use of purine derivatives as selective kinase inhibitors” (MERCKLE GMBH, priority 2003, dated 2004)

Key:
Format in all cases: biochemical
SAPK2a (h) = SAPK2a (h) (Homo sapiens, UniProt Q16539); assay: Kinase inhibition assay (33P-ATP, P30 filter, scintillation counting): SAPK2a; conditions: 30µM Testsubstanz (100 µM ATP); read-out: Hemmung von Kinasen in % SAPK2a (h)
Description: (§1) Alle Kinasen werden auf zehnfache Arbeitskonzentration vor Anwendung in dem Essay verdünnt. Die Zusammensetzung des Verdünnungspuffers ist für jede Kinase in der nachfolgenden Tabelle angegeben.
(§2) Alle Substrate werden gelöst und auf eine Stammlösung in entsalztem Wasser verdünnt.
SAPK2a (h) wird in einem Endreaktionsvolumen von 25 µl mit 25 mM Tris pH 7,5, 0.02 mM EGTA, 0.33 mg/ml Myelin-Basisprotein, 10 mM MgAcetat und [γ-^33P-ATP] inkubiert (spezifische Aktivität etwa 50 cpm/pmol, Konzentration wie erforderlich). Die Reaktion wird durch Zugabe von Mg^2+[γ-^33P-ATP] initiiert. Nach 40-minütiger Inkubation bei Raumtemperatur wird die Reaktion durch Zugabe von 5 µl einer 3 %igen Phosphorsäurelösung gestoppt. 10 µl der Reaktion werden dann auf ein P30-Filter gegeben und dreimal jeweils 5 Minuten in 50 mM Phosphorsäure und einmal in Methanol gewaschen. Anschließend wird getrocknet und eine Szintillationszählung durchgeführt.

GSK3β (h) = GSK3β (h) (Homo sapiens, UniProt P49841); assay: Kinase inhibition assay (33P-ATP, P30 filter, scintillation counting): GSK3β; conditions: 30µM Testsubstanz (100 µM ATP); read-out: Hemmung von Kinasen in % GSK3β (h)
Chain of GSK3β (h) (P49841 whole entry): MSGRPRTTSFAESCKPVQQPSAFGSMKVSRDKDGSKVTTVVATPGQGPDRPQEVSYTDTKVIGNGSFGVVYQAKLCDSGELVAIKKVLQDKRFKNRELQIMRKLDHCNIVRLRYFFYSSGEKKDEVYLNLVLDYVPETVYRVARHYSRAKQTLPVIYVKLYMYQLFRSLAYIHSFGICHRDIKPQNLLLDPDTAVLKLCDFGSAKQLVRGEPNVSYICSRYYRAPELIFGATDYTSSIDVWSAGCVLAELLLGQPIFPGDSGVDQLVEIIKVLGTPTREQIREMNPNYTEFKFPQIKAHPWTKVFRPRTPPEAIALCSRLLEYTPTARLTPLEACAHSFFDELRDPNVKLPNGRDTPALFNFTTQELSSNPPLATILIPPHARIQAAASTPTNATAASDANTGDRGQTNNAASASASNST
Description: as §1, §2
GSK3β (h)(5-10mU) in einem Endreaktionsvolumen von 25 µl wird mit 8 mM MOPS pH 7.0, 0.2 mM EDTA, 20 µM […](p) EDEEE (phospho GS2 Peptid), 10 mM MgAcetat und [γ-^33P-ATP] inkubiert (spezifische Aktivität etwa 500 cpm/pmol, Konzentration wie erforderlich). Die Reaktion wird durch Zugabe von Mg^2+[γ-^33P-ATP] initiiert. Nach 40-minütiger Inkubation bei Raumtemperatur wird die Reaktion durch Zugabe von 5 µl einer 3 %igen Phosphorsäurelösung gestoppt. 10 µl der Reaktion werden dann auf ein P30-Filter gegeben und dreimal jeweils 5 Minuten in 50 mM Phosphorsäure und einmal in Methanol gewaschen. Anschließend wird getrocknet und eine Szintillationszählung durchgeführt.

Lck (h) = Lck (h) (Homo sapiens, UniProt P06239); assay: Kinase inhibition assay (33P-ATP, P30 filter, scintillation counting): Lck; conditions: 30µM Testsubstanz (100 µM ATP); read-out: Hemmung von Kinasen in % Lck (h)
Chain of Lck (h) (P06239 whole entry): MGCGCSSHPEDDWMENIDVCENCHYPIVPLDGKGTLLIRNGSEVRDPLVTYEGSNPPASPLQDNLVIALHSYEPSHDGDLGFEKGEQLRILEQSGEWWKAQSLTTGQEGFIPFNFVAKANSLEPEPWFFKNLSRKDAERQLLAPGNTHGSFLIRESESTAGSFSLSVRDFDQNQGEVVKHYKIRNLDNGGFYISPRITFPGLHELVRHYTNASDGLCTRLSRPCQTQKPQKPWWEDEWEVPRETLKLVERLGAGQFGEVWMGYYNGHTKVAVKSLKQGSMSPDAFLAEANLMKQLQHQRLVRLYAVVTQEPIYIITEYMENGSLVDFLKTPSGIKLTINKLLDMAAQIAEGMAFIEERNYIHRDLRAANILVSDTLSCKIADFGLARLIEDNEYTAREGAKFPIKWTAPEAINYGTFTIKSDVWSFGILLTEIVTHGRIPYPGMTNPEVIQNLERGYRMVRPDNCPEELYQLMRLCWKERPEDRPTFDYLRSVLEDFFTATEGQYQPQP
Description: as §1, §2
Lck (h)(5-10 mU) in einem Endreaktionsvolumen von 25 µl wird mit 50 mM Tris pH 7.5, 0.1 mM EGTA, 0.1 mM NaVanadate, 250 µM KVEKIGEGTYGVVYK (Cdc2 Peptid), 10 mM MgAcetat und [γ-^33P-ATP] inkubiert (spezifische Aktivität etwa 500 cpm/pmol, Konzentration wie erforderlich). Die Reaktion wird durch Zugabe von Mg^2+[γ-^33P-ATP] initiiert. Nach 40-minütiger Inkubation bei Raumtemperatur wird die Reaktion durch Zugabe von 5 µl einer 3 %igen Phosphorsäurelösung gestoppt. 10 µl der Reaktion werden dann auf ein P30-Filter gegeben und dreimal jeweils 5 Minuten in 50 mM Phosphorsäure und einmal in Methanol gewaschen. Anschließend wird getrocknet und eine Szintillationszählung durchgeführt.

PKB (h) = PKB (h) (Homo sapiens, UniProt P31749); assay: Kinase inhibition assay (33P-ATP, P30 filter, scintillation counting): PKB; conditions: 40 min; 30µM Testsubstanz (100 µM ATP); read-out: Hemmung von Kinasen in % PKB (h)
Chain of PKB (h) (P31749 whole entry): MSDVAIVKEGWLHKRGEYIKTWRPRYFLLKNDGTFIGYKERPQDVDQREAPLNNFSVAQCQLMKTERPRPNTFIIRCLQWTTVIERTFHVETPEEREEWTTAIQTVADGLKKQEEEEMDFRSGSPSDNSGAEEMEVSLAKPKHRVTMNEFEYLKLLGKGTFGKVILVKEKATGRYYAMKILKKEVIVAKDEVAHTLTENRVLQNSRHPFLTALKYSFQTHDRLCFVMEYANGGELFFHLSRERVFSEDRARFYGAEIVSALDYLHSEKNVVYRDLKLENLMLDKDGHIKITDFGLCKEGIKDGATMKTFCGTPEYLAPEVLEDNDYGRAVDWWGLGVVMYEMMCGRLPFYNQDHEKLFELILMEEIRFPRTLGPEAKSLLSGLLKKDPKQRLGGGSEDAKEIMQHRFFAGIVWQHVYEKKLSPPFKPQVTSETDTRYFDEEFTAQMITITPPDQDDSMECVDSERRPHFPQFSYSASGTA
Description: as §1, §2
PKBα (h)(5-10mU) wird in einem Endreaktionsvolumen von 25 µl mit 8 mM MOPS pH 7.0, 0.2 mM EDTRA, 30 µM GRPRTSSFAEGKK, 10 mM MgAcetat und [γ-^33P-ATP] inkubiert (spezifische Aktivität etwa 50 cpm/pmol, Konzentration wie erforderlich). Die Reaktion wird durch Zugabe von Mg^2+[γ-^33P-ATP] initiiert. Nach 40-minütiger Inkubation bei Raumtemperatur wird die Reaktion durch Zugabe von 5 µl einer 3 %igen Phosphorsäurelösung gestoppt. 10 µl der Reaktion werden dann auf ein P30-Filter gegeben und dreimal jeweils 5 Minuten in 50 mM Phosphorsäure und einmal in Methanol gewaschen. Anschließend wird getrocknet und eine Szintillationszählung durchgeführt.

c-RAF (h) = c-RAF (h) (Homo sapiens, UniProt P04049); assay: Kinase inhibition assay (33P-ATP, P30 filter, scintillation counting): c-RAF; conditions: 40 min; 30µM Testsubstanz (100 µM ATP); read-out: Hemmung von Kinasen in % c-RAF (h)
Chain of c-RAF (h) (P04049 whole entry): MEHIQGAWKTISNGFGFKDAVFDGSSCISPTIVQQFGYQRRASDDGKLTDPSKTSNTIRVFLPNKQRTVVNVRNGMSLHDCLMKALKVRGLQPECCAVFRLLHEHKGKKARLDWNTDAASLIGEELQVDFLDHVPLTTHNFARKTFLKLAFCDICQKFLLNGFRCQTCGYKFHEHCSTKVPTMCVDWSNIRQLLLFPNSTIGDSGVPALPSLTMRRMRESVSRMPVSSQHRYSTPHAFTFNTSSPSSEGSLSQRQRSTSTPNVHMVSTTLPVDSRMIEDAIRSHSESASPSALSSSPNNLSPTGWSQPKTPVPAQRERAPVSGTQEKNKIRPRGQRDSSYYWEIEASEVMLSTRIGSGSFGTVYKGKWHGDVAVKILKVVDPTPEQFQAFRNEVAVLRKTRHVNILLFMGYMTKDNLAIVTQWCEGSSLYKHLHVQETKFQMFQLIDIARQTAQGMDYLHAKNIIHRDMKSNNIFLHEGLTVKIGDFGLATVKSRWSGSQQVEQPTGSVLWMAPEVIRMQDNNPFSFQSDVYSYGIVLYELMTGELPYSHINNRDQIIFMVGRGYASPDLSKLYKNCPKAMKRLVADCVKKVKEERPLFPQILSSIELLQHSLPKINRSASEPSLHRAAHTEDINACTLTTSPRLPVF
Description: as §1, §2
c-RAF (ha)(5-10 mU) in einem Endreaktionsvolumen von 25 µl wird mit 25 mM Tris pH 7.5,.0.02 mM EGTA, 0.66 mg/ml Myelin-Basisprotein, 10 mM MgAcetat und [γ-^33P-ATP] inkubiert (spezifische Aktivität etwa 50 cpm/pmol, Konzentration wie erforderlich). Die Reaktion wird durch Zugabe von Mg^2+[γ-^33P-ATP] initiiert. Nach 40-minütiger Inkubation bei Raumtemperatur wird die Reaktion durch Zugabe von 5 µl einer 3 %igen Phosphorsäurelösung gestoppt. 10 µl der Reaktion werden dann auf ein P30-Filter gegeben und dreimal jeweils 5 Minuten in 50 mM Phosphorsäure und einmal in Methanol gewaschen. Anschließend wird getrocknet und eine Szintillationszählung durchgeführt.

JNK3 (r) = JNK3 (r) (Rattus norvegicus, UniProt P49187); assay: Kinase inhibition assay: JNK3; conditions: 30µM Testsubstanz (100 µM ATP); read-out: Hemmung von Kinasen in % JNK3 (r)
Chain of JNK3 (r) (P49187 whole entry): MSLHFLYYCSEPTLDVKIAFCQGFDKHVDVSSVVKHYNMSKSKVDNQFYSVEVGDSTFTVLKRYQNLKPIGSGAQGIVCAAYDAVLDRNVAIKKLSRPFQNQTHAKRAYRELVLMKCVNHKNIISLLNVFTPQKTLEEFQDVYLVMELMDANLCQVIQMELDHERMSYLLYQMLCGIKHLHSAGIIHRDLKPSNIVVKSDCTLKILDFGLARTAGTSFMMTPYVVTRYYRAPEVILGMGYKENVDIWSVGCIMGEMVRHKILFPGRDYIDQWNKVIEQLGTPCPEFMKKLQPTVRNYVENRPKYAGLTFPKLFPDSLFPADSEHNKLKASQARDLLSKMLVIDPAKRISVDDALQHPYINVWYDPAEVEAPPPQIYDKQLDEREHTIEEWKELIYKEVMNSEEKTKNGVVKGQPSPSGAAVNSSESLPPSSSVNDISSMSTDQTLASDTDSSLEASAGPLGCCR
Source text: as §1, §2

ROCKII (h) = assay: Kinase inhibition assay (33P-ATP, P30 filter, scintillation counting): ROCK-II; conditions: 30µM Testsubstanz (100 µM ATP); 40 min
MAPK1 (h) = MAPK1 (h) (Homo sapiens, UniProt P27361); assay: Kinase inhibition assay: MAPK1; conditions: 30µM Testsubstanz (100 µM ATP); read-out: Hemmung von Kinasen in % MAPK1 (h)
Chain of MAPK1 (h) (P27361 whole entry): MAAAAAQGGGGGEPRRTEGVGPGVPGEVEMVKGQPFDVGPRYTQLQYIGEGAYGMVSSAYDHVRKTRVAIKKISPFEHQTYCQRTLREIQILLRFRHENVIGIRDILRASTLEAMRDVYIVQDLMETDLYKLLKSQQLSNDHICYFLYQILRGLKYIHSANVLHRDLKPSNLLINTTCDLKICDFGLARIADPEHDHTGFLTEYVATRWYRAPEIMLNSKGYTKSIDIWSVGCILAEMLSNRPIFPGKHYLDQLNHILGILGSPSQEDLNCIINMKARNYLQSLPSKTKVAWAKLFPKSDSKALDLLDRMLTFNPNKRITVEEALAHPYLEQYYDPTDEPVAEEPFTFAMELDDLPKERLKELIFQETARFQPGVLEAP
Source text: as §1, §2

MEK1 (h) = MEK1 (h) (Homo sapiens, UniProt Q02750); assay: Kinase inhibition assay: MEK1 (coupled to MAPK2 assay); conditions: 30µM Testsubstanz (100 µM ATP); read-out: Hemmung von Kinasen in % MEK1 (h)
Chain of MEK1 (h) (Q02750 whole entry): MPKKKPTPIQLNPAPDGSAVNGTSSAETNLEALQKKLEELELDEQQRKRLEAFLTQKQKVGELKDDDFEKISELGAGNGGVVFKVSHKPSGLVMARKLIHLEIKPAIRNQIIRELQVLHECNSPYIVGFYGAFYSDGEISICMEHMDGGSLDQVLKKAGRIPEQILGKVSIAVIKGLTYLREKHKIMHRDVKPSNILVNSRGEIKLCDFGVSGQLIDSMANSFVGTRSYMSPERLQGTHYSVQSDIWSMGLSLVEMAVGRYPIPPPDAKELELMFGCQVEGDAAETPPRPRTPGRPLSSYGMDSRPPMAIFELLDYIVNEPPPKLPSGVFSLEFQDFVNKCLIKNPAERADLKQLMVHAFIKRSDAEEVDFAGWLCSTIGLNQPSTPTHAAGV
Description: as §1, §2
MEK1 (h)(1-5 mU) in einem Endreaktionsvolumen von 25 µl wird mit 50 mM Tris pH 7.5, 0.2 mM EGTA, 0.1 % b-Mercaptoethanol, 0,01 % Brij-35, 1 µM inaktives MAPK2 (m), 10 mM MgAcetat und kaltem ATP inkubiert (Konzentration wie erforderlich). Die Reaktion wird durch Zugabe von MgATB initiiert. Nach 40-minütiger Inkubation bei Raumtemperatur werden […] dieses Inkubationsgemisches dazu verwendet, den oben beschriebenen MAPK2-Assay zu initiieren.

PKA (h) = assay: Kinase inhibition assay (33P-ATP, P30 filter, scintillation counting): PKA; conditions: 30µM Testsubstanz (100 µM ATP); 40 min
MAPK2 (h) = MAPK2 (h) (Homo sapiens, UniProt P28482); assay: Kinase inhibition assay: MAPK2; conditions: 30µM Testsubstanz (100 µM ATP); read-out: Hemmung von Kinasen in % MAPK2 (h)
Chain of MAPK2 (h) (P28482 whole entry): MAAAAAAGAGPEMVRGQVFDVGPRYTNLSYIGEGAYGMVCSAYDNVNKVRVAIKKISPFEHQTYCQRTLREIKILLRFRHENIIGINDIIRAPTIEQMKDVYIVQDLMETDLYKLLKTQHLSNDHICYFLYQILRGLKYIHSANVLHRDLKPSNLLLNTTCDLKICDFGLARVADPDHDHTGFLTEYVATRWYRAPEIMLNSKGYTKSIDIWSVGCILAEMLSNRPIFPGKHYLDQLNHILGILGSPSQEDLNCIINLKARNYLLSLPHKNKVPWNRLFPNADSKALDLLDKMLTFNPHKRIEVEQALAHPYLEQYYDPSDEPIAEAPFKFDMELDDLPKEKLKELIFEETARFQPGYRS
Source text: as §1, §2

Chain of SAPK2a (h) (Q16539 whole entry): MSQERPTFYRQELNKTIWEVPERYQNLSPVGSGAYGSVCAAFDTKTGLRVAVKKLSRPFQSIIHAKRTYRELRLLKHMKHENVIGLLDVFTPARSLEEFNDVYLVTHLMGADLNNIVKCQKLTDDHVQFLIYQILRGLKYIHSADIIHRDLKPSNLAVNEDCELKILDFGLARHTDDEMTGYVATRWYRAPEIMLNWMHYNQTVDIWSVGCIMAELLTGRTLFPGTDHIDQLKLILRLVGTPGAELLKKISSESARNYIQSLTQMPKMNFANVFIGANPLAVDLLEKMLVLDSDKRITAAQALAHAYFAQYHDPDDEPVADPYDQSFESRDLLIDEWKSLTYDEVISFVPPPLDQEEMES

SMILES	inhibition at 30 µM (SAPK2a (h)) [%]	inhibition at 30 µM (GSK3β (h)) [%]	inhibition at 30 µM (Lck (h)) [%]	inhibition at 30 µM (PKB (h)) [%]	inhibition at 30 µM (c-RAF (h)) [%]	inhibition at 30 µM (JNK3 (r)) [%]	Hemmung von Kinasen in % ROCKII (h) (ROCKII (h)) [%]	inhibition at 30 µM (MAPK1 (h)) [%]	inhibition at 30 µM (MEK1 (h)) [%]	Hemmung von Kinasen in % PKA (h) (PKA (h)) [%]	inhibition at 30 µM (MAPK2 (h)) [%]
Nc1ncnc2c1ncn2Cc1ccc(F)cc1 [Verbd. 42a, 9-(4-Fluoro-benzyl)-9H-purin-6-ylamin]	7	7	19	0	25	17	5	17	7	1	11
Nc1ncnc2ncn(Cc3ccc(F)cc3)c12 [Verbd. 43, 7-(4-Fluoro-benzyl)-7H-purin-6-ylamin]	8	0	0	0	28	25	6	26	8	7	5
COc1ncnc2ncn(Cc3ccc(F)cc3)c12 [Verbd. 44, 7-(4-Fluoro-benzyl)-6-methoxy-7H-purin]	8	5	0	0	0	30	1	19	3	7	3
c1ccc(Sc2ncnc3[nH]ccc23)cc1 [Verbd. 52, 4-Phenylsulfanyl-7H-pyrrolo[2,3-d]pyrimidin]	56	11	56	0	22	0	36	11	41	0	4
Fc1ccc(Sc2ncnc3[nH]ccc23)cc1 [Verbd. 53, 4-(4-Fluoro-phenylsulfanyl)-7H-pyrrolo[2,3-d]pyrimidin]	79	4	52	0	43	5	42	10	36	0	2
Cn1c(-c2ccc([S+](C)[O-])cc2)nc2c(Sc3ccccc3)ncnc21 (stereo not shown) [Verbd. 59, 8-(4-Methansulfinyl-phenyl)-9-methyl-6-phenylsulfanyl-9H-purin]	27	4	30	4	0	6	1	0	3	0	0
Cn1c(-c2ccc([S+](C)[O-])cc2)nc2c(Sc3ccc(F)cc3)ncnc21 (stereo not shown) [Verbd. 60, 6-(4-Fluoro-phenylsulfanyl)-8-(4-methan-sulfinyl-phenyl)-9-methyl-9H-purin]	44	4	30	10	4	10	0	0	1	4	0
Cn1c(-c2ccc(S(C)(=O)=O)cc2)nc2c(Sc3ccccc3)ncnc21 [Verbd. 62, 8-(4-Methansulfonyl-phenyl)-9-methyl-6-phenylsulfanyl-9H-purin]	36	0	16	14	10	7	5	9	4	11	3
C(=Cc1ncnc2[nH]cnc12)c1ccccc1 [Verbd. 72, 6-Styryl-9H-purin]	17	20	37	7	66	2	22	50	7	4	20
c1ccc(Cn2cnc3c(Sc4ccccc4)ncnc32)cc1 [Verbd. 74, 9-Benzyl-6-phenylsulfanyl-9H-purin]	64	1	0	1	0	0	1	0	6	0	0
Fc1ccc(Sc2ncnc3c2ncn3Cc2ccccc2)cc1 [Verbd. 75, 9-Benzyl-6-(4-fluoro-phenylsulfanyl)-9H-purin]	64	0	16	1	0	0	5	0	4	0	0
